Source: patent EP0200818A1, “Derivatives of the pluramycin group having anti-tumor activity, process for their preparation and their use as medicaments” (MICROBIAL CHEMISTRY RESEARCH FOUNDATION, priority 1984, dated 1986)

Columns and labels:
[1] = Acute toxicity (LD50), single intraperitoneal injection; format: in vivo; conditions: single intraperitoneal injection in mice
Description: The LD50 of 5',6'-dehydrokidamycin for a single intraperitoneal injection in mice was 100 mg/kg.

[2] = system: cultured leukemia cell L 1210; assay: Cytotoxicity: growth inhibition of cultured leukemia cells; format: cell-based; conditions: growth of cultured leukemia cell L 1210
Description: The growth of cultured leukemia cell L 1210 was inhibited by 0.07 µg/ml (IC50) of 5',6'~dehydrokidamycin.

L 1210 leukemia cells = assay: Anti-tumor activity: life prolongation of mice transplanted intraperitoneally with L 1210 leukemia cells; format: in vivo, CDF1 mice; conditions: observed for 30 days, survival of physiological saline control mice = 100
Description: A suspension of 1 x 10^5 L 1210 leukemia cells was transplated intraperitoneally in each of the CDF1 mice tested. Thereafter, 5',6'-dehydrokidamycin was injected intraperitoneally for 10 days in predetermined amounts, 10, 5, 2.5, 1.25, 0.625 and 0.3125 mg/kg.

5',6'-dehydrokidamycin
LD50 [1]: 100 mg/kg | IC50 [2]: 0.07 µg/mL | Percent life prolongation (L 1210 leukemia cells; 0.3125 mg/kg/day intraperitoneally for 10 days): 147% | Percent life prolongation (L 1210 leukemia cells; 0.625 mg/kg/day intraperitoneally for 10 days): 133% | Percent life prolongation (L 1210 leukemia cells; 1.25 mg/kg/day intraperitoneally for 10 days): 133% | Percent life prolongation (L 1210 leukemia cells; 2.5 mg/kg/day intraperitoneally for 10 days): 133% | Percent life prolongation (L 1210 leukemia cells; 5 mg/kg/day intraperitoneally for 10 days): 173% | Percent life prolongation (L 1210 leukemia cells; 10 mg/kg/day intraperitoneally for 10 days): 153%
